In patent US20240374573A1, “IMIDAZOLE CONTAINING COMPOUNDS, DERIVATIVES THEREFORE, AND USES THEREOF” (AglaeaPharma Inc., priority 2023, published 2024):
pKi: −log10 of the molar value.

The molecules below were run against T1, α2AAR (Homo sapiens, UniProt P08913) (assay: α2AAR binding assay ([3H]-RX 821002 radioligand)). Conditions: [3H]-RX 821002 0.5 nM, HEK293 membranes; read-out: α2A affinity (Ki).
T1 construct: host or cells: HEK293 (membranes)
T1 sequence (P08913 1-465): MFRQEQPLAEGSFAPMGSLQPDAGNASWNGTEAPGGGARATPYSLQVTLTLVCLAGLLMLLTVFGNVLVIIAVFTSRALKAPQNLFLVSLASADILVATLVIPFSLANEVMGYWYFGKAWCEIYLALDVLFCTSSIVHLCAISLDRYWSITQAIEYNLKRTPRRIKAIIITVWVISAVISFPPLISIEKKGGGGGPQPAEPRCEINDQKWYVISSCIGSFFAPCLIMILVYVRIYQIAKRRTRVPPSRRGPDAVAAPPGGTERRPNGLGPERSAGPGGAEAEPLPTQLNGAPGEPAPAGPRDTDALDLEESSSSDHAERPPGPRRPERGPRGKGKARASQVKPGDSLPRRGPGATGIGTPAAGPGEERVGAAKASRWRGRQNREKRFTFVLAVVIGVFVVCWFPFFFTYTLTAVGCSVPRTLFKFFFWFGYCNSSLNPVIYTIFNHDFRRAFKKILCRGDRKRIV
Procedure: The α2AR Binding Assay was conducted using a stable HEK293 cell line, specifically constructed by WuXi AppTec for targeting α2AAR. […] Both the assay and wash buffers consist of 50 mM Tris-HCl at a pH of 7.4 (Tris base, Sigma, T1503-1 KG).
The procedure initiated with the preparation of test compounds and a reference compound, yohimbine (Sigma, Y3125), through an 8-point 4-fold serial dilution, transferring 1 μL of each to the assay plate. […] After scaling, the plates were agitated at room temperature for one hour. Subsequently, the Unifilter-96 GF/C filter plates were pre-soaked with 0.3% PEI (Sigma, P3143) for at least half an hour. The reaction mixtures were then filtered and washed four times with cold wash buffer using a Perkin Elmer Cell harvester. Post-filtration, the plates were dried at 50° C. for one hour. […] The top of the plates was then sealed with TopSeal-A sealing film. The trapped 3H was quantified using a Perkin Elmer MicroBeta2 Reader. […] Finally, the data were analyzed with Prism 5.0 software, employing the “log (inhibitor) vs. response-Variable slope” model for data fitting. This comprehensive process ensured precise assessment of the binding affinity of compounds to the α2AAR.
For `Cc1cccc(C(CC23CC4CC(C2)CC(C(N)=O)(C4)C3)c2c[nH]cn2)c1C` (stereo not shown) [compound 188], the pKi was < 6.00.
With `CNS(=O)(=O)Nc1cccc(C(c2c[nH]cn2)c2cccc(C)c2C)c1` (stereo not shown) [compound 127] the pKi was 7.30 to 8.00.
For `Cc1cccc(C(c2cccc(NS(=O)(=O)C(F)(F)F)c2)c2c[nH]cn2)c1C` (stereo not shown) [compound 77], the pKi was 6.00 to 6.60.
With `Cc1cccc(C(NC2=NCCS2)c2cccc(NS(C)(=O)=O)c2)c1C` (stereo not shown) [compound 504] the pKi was 6.60 to 7.30.
With `CS(=O)(=O)Nc1cccc(CC(C2=NCCN2)c2c(Cl)cccc2Cl)c1` (stereo not shown) [compound 501] the pKi was 6.00 to 6.60.
`Cc1cccc(C(Cc2ccc(C(N)=O)c(F)c2)c2c[nH]cn2)c1C` (single isomer, unassigned) [156-A] was tested, and the pKi was < 6.00.
In the case of `Cc1cccc(C(NC2=NCCS2)c2cccc(NC(=O)CC3CCOCC3)c2)c1C` (stereo not shown) [compound 507], the pKi was 7.30 to 8.00.
For `Cc1cccc(C(c2ccnc(NS(C)(=O)=O)c2)c2c[nH]cn2)c1C` (stereo not shown) [compound 57], the pKi was 6.00 to 6.60.
For `Cc1cccc(C(c2cccc(COCCNS(C)(=O)=O)c2)c2c[nH]cn2)c1C` (stereo not shown) [compound 116], the pKi was 7.30 to 8.00.
For `CC(=O)NCc1cccc(C(c2c[nH]cn2)c2cccc(C)c2C)c1` (stereo not shown) [compound 65], the pKi was 6.60 to 7.30.
For `Cc1cccc(C(c2cccc(C#N)c2)c2c[nH]cn2)c1C` (stereo not shown) [compound 68], the pKi was 6.60 to 7.30.
With `Cc1cccc(C(c2c[nH]cn2)C2CCCC(C(=O)O)C2)c1C` (stereo not shown) [compound 60] the pKi was 6.00 to 6.60.
Work on `Cc1cccc(C(c2cccc(C(=O)NOCCN3CCOCC3)c2)c2c[nH]cn2)c1C` (stereo not shown) [compound 91] yielded a pKi of 6.60 to 7.30.
`Cc1cccc(C(c2cccc(C(=O)NCC3CCOCC3)c2)c2c[nH]cn2)c1C` (single isomer, unassigned) [98-A] gave a pKi of 6.00 to 6.60.
Molecule `Cc1cccc(C(c2cccc(NC(=O)CN(C)C)c2)c2c[nH]cn2)c1C` (stereo not shown) [compound 110] has a pKi of 6.60 to 7.30.
`Cc1cccc(C(c2c[nH]cn2)N2CCc3ccc(NS(C)(=O)=O)cc32)c1C` (stereo not shown) [compound 106] was tested, and the pKi was 6.60 to 7.30.
In the case of `Cc1cccc(C(c2c[nH]cn2)c2cccc(C(=O)NCC3CCOCC3)c2F)c1C` (single isomer, unassigned) [124-A], the pKi was 6.00 to 6.60.
In the case of `Cc1cccc(C(c2c[nH]cn2)C2CCCC(C(N)=O)C2)c1C` (stereo not shown) [compound 92], the pKi was < 6.00.
Work on `Cc1csc(C)c1C(c1cccc(NS(C)(=O)=O)c1)c1c[nH]cn1` (stereo not shown) [compound 402] yielded a pKi of 6.00 to 6.60.
With `Cc1cccc(C(c2c[nH]cn2)c2cccc(NC(=O)CC#N)c2F)c1C` (stereo not shown) [compound 41] the pKi was 6.60 to 7.30.
Molecule `Cc1cccc(C(c2cccc(N(C)S(C)(=O)=O)c2)c2c[nH]cn2)c1C` (stereo not shown) [compound 71] has a pKi of 7.30 to 8.00.
In the case of `Cc1cccc(C(CCCCNS(=O)(=O)C2CCOCC2)c2c[nH]cn2)c1C` (stereo not shown) [compound 250], the pKi was 6.60 to 7.30.
With `CONC(=O)c1cccc(C(NC2=NCCS2)c2ccccc2OC)c1` (stereo not shown) [compound 508] the pKi was 6.00 to 6.60.
With `Cc1cccc(C(c2c[nH]cn2)c2cccc(C(N)=O)c2F)c1C` (single isomer, unassigned) [45-A] the pKi was < 6.00.
For `CONC(=O)c1cccc(CC(NC2=NCCS2)c2cccc(C)c2C)c1` (stereo not shown) [compound 511], the pKi was > 8.00.
In the case of `COC(=O)Nc1cccc(C(c2c[nH]cn2)c2cccc(C)c2C)c1` (stereo not shown) [compound 62], the pKi was 6.60 to 7.30.
With `Cc1cccc(C(Cc2cccc(NS(C)(=O)=O)c2)C2=NCCN2)c1C` (stereo not shown) [compound 510] the pKi was 6.60 to 7.30.
For `Cc1cccc(C(c2cccc(CN3CCCCC3)c2)c2c[nH]cn2)c1C` (stereo not shown) [compound 114], the pKi was < 6.00.
Work on `Cc1cccc(C(CCc2ccccc2NS(C)(=O)=O)c2c[nH]cn2)c1C` (stereo not shown) [compound 183] yielded a pKi of 6.00 to 6.60.
With `Cc1cccc(C(c2cccc(OCCNS(C)(=O)=O)c2)c2c[nH]cn2)c1C` (single isomer, unassigned) [46-A] the pKi was < 6.00.
For `Cc1cccc(C(Cc2ccc(C(=O)O)cc2)c2c[nH]cn2)c1C` (single isomer, unassigned) [175-A], the pKi was < 6.00.
In the case of `CS(=O)(=O)Nc1cccc(C(c2c[nH]cn2)c2c(F)cccc2Cl)c1` (stereo not shown) [compound 78], the pKi was 6.00 to 6.60.
For `Cc1c(F)cccc1C(c1cccc(NS(C)(=O)=O)c1)c1c[nH]cn1` (stereo not shown) [compound 75], the pKi was 6.60 to 7.30.
For `Cc1cccc(C(c2cccc(OCCC#N)c2)c2c[nH]cn2)c1C` (stereo not shown) [compound 48], the pKi was < 6.00.
For `Cc1cccc(C(Cc2ccc(P(=O)(O)O)cc2)c2c[nH]cn2)c1C` (stereo not shown) [compound 199], the pKi was < 6.00.
For `Cc1cccc(C(OCCOCCNS(C)(=O)=O)c2c[nH]cn2)c1C` (stereo not shown) [compound 40], the pKi was < 6.00.
Work on `Cc1cccc(C(CCCCNS(C)(=O)=O)c2c[nH]cn2)c1C` (stereo not shown) [compound 191] yielded a pKi of 6.60 to 7.30.
With `Cc1csc(CCS(=O)(=O)Nc2cccc(C(c3c[nH]cn3)c3cccc(C)c3C)c2)n1` (stereo not shown) [compound 131] the pKi was 7.30 to 8.00.
`Cc1cccc(C(CCCCCC(N)=O)c2c[nH]cn2)c1C` (stereo not shown) [compound 240] was tested, and the pKi was 6.00 to 6.60.
With `Cc1cccc(C(c2cccc(NC(=O)CC[N+](C)(C)C)c2)c2c[nH]cn2)c1C` (stereo not shown) [compound 144] the pKi was 6.60 to 7.30.
Work on `COc1ccccc1C(NC1=NCCS1)c1cccc(NC(=O)CC2CCOCC2)c1` (stereo not shown) [compound 514] yielded a pKi of 6.60 to 7.30.
With `COc1ccccc1C(c1cccc(NS(C)(=O)=O)c1)c1c[nH]cn1` (stereo not shown) [compound 135] the pKi was 6.60 to 7.30.
Molecule `Cc1cccc(C(Cc2ccc(C(N)=O)nc2)c2c[nH]cn2)c1C` (stereo not shown) [compound 238] has a pKi of 6.60 to 7.30.
With `Cc1cccc(C(c2cccc(NC(=O)CCC(N)=O)c2)c2c[nH]cn2)c1C` (stereo not shown) [compound 42] the pKi was 6.60 to 7.30.
`Cc1cccc(C(c2cccc(CNS(C)(=O)=O)c2)c2c[nH]cn2)c1C` (stereo not shown) [compound 69] showed a pKi of 6.60 to 7.30.
`Cc1cccc(C(c2cccc(CCN3CCC(O)CC3)c2)c2c[nH]cn2)c1C` (stereo not shown) [compound 125] gave a pKi of 7.30 to 8.00.
`Cc1cccc(C(c2cccc(NS(=O)(=O)CCc3cncnc3)c2)c2c[nH]cn2)c1C` (stereo not shown) [compound 189] showed a pKi of 7.30 to 8.00.
For `CNC(=O)Nc1cccc(C(c2c[nH]cn2)c2cccc(C)c2C)c1` (stereo not shown) [compound 128], the pKi was 6.60 to 7.30.
`CCc1ccccc1C(c1cccc(NS(C)(=O)=O)c1)c1c[nH]cn1` (stereo not shown) [compound 140] was tested, and the pKi was 6.60 to 7.30.
`Cc1cccc(C(c2c[nH]cn2)c2ccnc(C(N)=O)c2F)c1C` (stereo not shown) [compound 58] gave a pKi of 6.60 to 7.30.
`NC(=O)c1cccc(CC(Oc2c(Cl)cccc2Cl)C2=NCCN2)c1` (stereo not shown) [compound 502] gave a pKi of 6.60 to 7.30.
`C=CC(=O)Nc1cccc(C(c2c[nH]cn2)c2cccc(C)c2C)c1` (stereo not shown) [compound 129] was tested, and the pKi was 6.60 to 7.30.
`Cc1cccc(C(c2cccc(NC(=O)CN3CCNCC3)c2)c2c[nH]cn2)c1C` (stereo not shown) [compound 107] gave a pKi of 6.60 to 7.30.
Molecule `Cc1cccc(C(CCOCCOCCNS(C)(=O)=O)c2c[nH]cn2)c1C` (stereo not shown) [compound 93] has a pKi of 6.00 to 6.60.
With `CONC(=O)c1cccc(C(c2ccccc2)c2c[nH]cn2)c1` (stereo not shown) [compound 49] the pKi was < 6.00.
`Cc1cccc(C(Cc2cccc(NS(=O)(=O)CC3CCOCC3)c2)c2c[nH]cn2)c1C` (single isomer, unassigned) [112-A] was tested, and the pKi was 6.00 to 6.60.
Work on `Cc1cccc(C(c2cccc(NC(=O)c3cn[nH]c3)c2)c2c[nH]cn2)c1C` (stereo not shown) [compound 87] yielded a pKi of 6.60 to 7.30.
Work on `CONC(=O)c1cc(C(c2c[nH]cn2)c2cccc(C)c2C)cs1` (stereo not shown) [compound 182] yielded a pKi of 6.60 to 7.30.
`Cc1c(F)cccc1C(c1cccc(NC(=O)CC2CCOCC2)c1)c1c[nH]cn1` (stereo not shown) [compound 113] showed a pKi of 6.60 to 7.30.
In the case of `CONC(=O)c1cccc(CC(NC2=NCCS2)c2cccc(Cl)c2Cl)c1` (stereo not shown) [compound 512], the pKi was > 8.00.
In the case of `COc1ccccc1C(c1cccc(NC(=O)CC2CCOCC2)c1)c1c[nH]cn1` (stereo not shown) [compound 132], the pKi was 6.60 to 7.30.
Molecule `Cc1cccc(C(c2cccc(NCCNS(C)(=O)=O)c2)c2c[nH]cn2)c1C` (stereo not shown) [compound 83] has a pKi of 6.60 to 7.30.
With `Cc1cccc(C(Cc2ccc(NS(C)(=O)=O)cc2)C2=NCCN2)c1C` (stereo not shown) [compound 518] the pKi was 6.60 to 7.30.
With `CONC(=O)c1cc(CC(NC2=NCCS2)c2ccccc2OC)ccn1` (stereo not shown) [compound 513] the pKi was > 8.00.
Molecule `Cc1c(CO)cccc1C(c1cccc(NS(C)(=O)=O)c1)c1c[nH]cn1` (stereo not shown) [compound 115] has a pKi of 6.00 to 6.60.
With `Cc1cccc(C(c2cccc(NC(=O)CCC#N)c2)c2c[nH]cn2)c1C` (single isomer, unassigned) [43-A] the pKi was < 6.00.
With `Cc1cccc(C(c2cccc(NC(=O)CCN3CCN(C)CC3)c2)c2c[nH]cn2)c1C` (stereo not shown) [compound 82] the pKi was < 6.00.
With `Cc1cccc(C(Cc2cccc(NS(=O)(=O)CC3CCOCC3)c2)c2c[nH]cn2)c1C` (stereo not shown) [compound 142] the pKi was > 8.00.

Same assay, conditions: α2A affinity (Ki, nM)
For `Cc1cccc(C(c2cnc[nH]2)C2CCc3ccc(O)cc32)c1C` (single isomer, unassigned) [100-B], the Ki was 50 to 250 nM.
With `Cc1cccc(C(c2cnc[nH]2)C2CCc3ccc(O)cc32)c1C` (single isomer, unassigned) [100-A] the Ki was < 10 nM.
In the case of `Cc1cccc(C(CCCCCNS(C)(=O)=O)c2c[nH]cn2)c1C` (stereo not shown) [compound 249], the Ki was 50 to 250 nM.
`Cc1cccc(C(COCCNS(C)(=O)=O)c2c[nH]cn2)c1C` (stereo not shown) [compound 66] gave a Ki of 250 to 1000 nM.
`Cc1cccc(C(CCCNS(C)(=O)=O)c2c[nH]cn2)c1C` (stereo not shown) [compound 184] gave a Ki of 250 to 1000 nM.
